Experimental data taken from patent US11883821B2, “Fluidic device for the detection, capture, or removal of a disease material” (Vanderbilt University, priority 2016, dated 2024).

Key:
[1] = tested on: Acinetobacter baumannii 'Patient 2'; test: Colistin MIC by standard agar dilution; assay type: cell-based; details: colistin-resistant isolate
Procedure: Bacterial cultures (i.e., Acinetobacter baumannii ATCC17978, Colistin-resistant Acinetobacter baumannii 19606R^41. Colistin-resistant Acinetobacter baumannii-Patient 2′. Klebsiella pneumoniae ATCC700603. Bacillus subtilis 1A578 (Bacillus Genetic Stock Center), Staphylococcus aureus ATCC29213) were plated on LB agar (Sigma-Aldrich, Lot #SLBR1403V) and grown overnight at 37° C. Single colonies of each strain were then inoculated in LB broth (IX) (Gibco, Lot #1803272) and grown at 37° C. for 18 hours shaking at 150 rpm. Cell concentrations were measured with OD595 spectrometry (Infinite F500. Tecan).
Colistin minimum inhibitory concentrations (MIC) of bacterial strains were confirmed by standard agar dilution methods. Results were interpreted according to the Clinical and Laboratory Standards Institute susceptibility breakpoints.

red blood cell = assay type: cell-based, human
Procedure: This process was repeated for the PEGylated device. Red blood cell lysis was then analyzed to determine release of free hemoglobin in plasma. Plasma hemoglobin was measured by according to well-established protocols. Following passage through the device, the blood samples were centrifuged (500×g) and the supernatant was spectrophotometrically analyzed for hemoglobin release using a plate-reader (Tecan, Infinite M1000 Pro) at 451 nm in order to determine percent hemolysis relative to the Triton-X positive control. Triton X-100 (Sigma-Aldrich) was diluted in diH2O to result in a 20 v/v % Triton-X detergent concentration, which served as the positive control. The negative control used was EDTA-anticoagulated whole, human blood that was not flowed through a double spiral microfluidic device (i.e. untreated). Percent of hemoglobin release was calculated according to the following equation: Hemoglobin release (%)=[(Sample451nm−Negative control451nm=)/(Positive control451nm−Negative control451nm)]×100%. Complete blood counts of each sample (i.e. untreated, colistinated device, PEGylated device) were performed by the Vanderbilt University Translational Pathology Shared Resource Core.

Row | Substance | Colistin MIC [1] [µg/mL] | Hemolysis (%) (red blood cell)
1 | Colistin | >256 | –
2 | Triton X-100 [Positive control (20 v/v % Triton-X)] | – | 100% ± 3.08%
